This note sets out measurements from patent US9663478B2, “Benzotriazine oxides as drugs targeting Mycobacterium tuberculosis” (priority 2011, dated 2017).

“Also recorded” adds a separate entry of the source.

The test system of the data set is mouse lymphoma cell tk+/−→tk−/− gene mutation. As to the kind of experiment: Mouse lymphoma cell tk+/−→tk−/− gene mutation (MOLY) assay. It counts as cell-based. From the text:
A liability in developing any bioreductively-activated antimicrobial drug is the potential for mutagenicity. Because the basis for activity of these compounds is the generation of intermediate radical species, undesirable mutagenicity poses a risk, as has been documented for many classes of bioreductive drugs, including the BTO tirapazamine (TPZ).^19,20 The most convenient methodology for assessing the potential to induce genetic damage is to use the plate incorporation method with Salmonella typhimurium strains TA98 and TA100, commonly known as the Ames assay. The Salmonella tester strains have mutations in the histidine operon, a mutation that leads to defective lipopolysaccharide (rfa), and a deletion that covers genes involved in the synthesis of biotin (bio) and in the repair of ultraviolet-induced DNA damage (uvrB).^21,22 These mutations make the strains more permeable to many molecules and increase their susceptibility to the mutagenic effects of these molecules. Given that the hypothesized mechanism of the BTO compounds is to selectively form cytotoxic radical species in bacteria over mammalian cells, a microbial mutagenicity assay is not ideal, but was used to benchmark their activities in this assay. […] Individual plate counts and their means and standard deviations, along with the condition of the background lawn, are presented in SI Table 2.
Experiments were conducted using a standard procedure for evaluating mutagenic potential.^23,24 The details on cell line, experimental procedures and data interpretaion have been previously published.^54 The following endpoints were evaluated in cells following exposure to 15fa and 20q: cell growth during expression periods, relative suspension growth, relative total growth, relative cloning efficiency, mutation frequency, and numbers of small (≦0.6 mm in diameter) colonies from trifluorothymidine-resistant (TFT^r) cells.

Regarding `[O-][n+]1nc(N2CCCC2)[n+]([O-])c2cc3c(cc21)CCC3` [Compound 20q, 3-(pyrrolidin-1-yl)-7,8-dihydro-6H-indeno[5,6-e][1,2,4]triazine 1,4-dioxide], the “Mutagenic potential in MOLY assay” value reads like this: (10 μg/mL, +S9, 4-Hr Exposure) “Negative”; (10 μg/mL, +S9, 24-Hr Exposure) “Negative”; (10 μg/mL, −S9, 4-Hr Exposure) “Negative”; (10 μg/mL, −S9, 24-Hr Exposure) “Negative”; (25 μg/mL, +S9, 4-Hr Exposure) “Negative^a”; (25 μg/mL, +S9, 24-Hr Exposure) “Negative”. Moreover, the “Mutagenic potential in MOLY assay” value is, setting by setting: (25 μg/mL, −S9, 4-Hr Exposure) “Negative”; (25 μg/mL, −S9, 24-Hr Exposure) “Negative”; (50 μg/mL, +S9, 4-Hr Exposure) “Negative”; (50 μg/mL, +S9, 24-Hr Exposure) “Negative”; (50 μg/mL, −S9, 4-Hr Exposure) “Negative”; (50 μg/mL, −S9, 24-Hr Exposure) “Negative”. Also, the “Mutagenic potential in MOLY assay” value is “Negative” (100 μg/mL, +S9, 4-Hr Exposure); “Negative” (100 μg/mL, +S9, 24-Hr Exposure); “Negative” (100 μg/mL, −S9, 4-Hr Exposure); “Negative” (100 μg/mL, −S9, 24-Hr Exposure). In addition, the “mutation frequency in MOLY assay” value (presence or absence of S9, non-cytotoxic dose levels, up to 100 μg/mL for 20q) was “no mutagenic activity; also recorded: negative response for mutation frequency”.
